Data as given in patent US6716829B2, “Aldosterone antagonist and cyclooxygenase-2 inhibitor combination therapy to prevent or treat inflammation-related cardiovascular disorders” (Pharmacia Corporation, priority 2000, dated 2004).
“And” between values parts separate entries of the source, which are not always exact repeats. Equal entries are not always repeated. “Also recorded” adds a separate entry of the source.

Tested on: Osteopontin
Test: Assay C: osteopontin mRNA in heart by TaqMan RT-PCR
Assay type: in vivo, Male Sprague-Dawley rats
Settings: for Osteop-pontin mRNA (AU): relative to cyclophilin expression, mean ± SEM, eplerenone dose 100 mg/kg/day; for Osteopontin (AU): mRNA, individual rats, incl. rat marked * excluded from statistics
Protocol: The procedure of Assay B was expanded upon in a further study. […] Myocardial tissue from animals in each treatment group was examined after 7, 14, or 30 days of treatment.
Potassium chloride supplementation was added to the saline solution in order to prevent the potential hypokalemia associated with aldosterone excess.
At the time of the surgery, an Alzet 2002 osmotic minipump (Alza Corp., Palo Alto, Calif.) containing either vehicle (9% ethanol/87% propylene glycol/4% dH2O) or 1.0 mg/mL d-aldosterone (Sigma Chemical, St. Louis, Mo.) was inserted subcutaneously at the nape of the neck. Aldosterone was administered at a dose of 0.75 µg/hour. […] Animals were sacrificed from each group (n=8-13) after 7, 14, or 30 days of treatment.
The fluorogenic 5′-nuclease assay (TaqMan PCR) using Applied Biosystems' 7700 Sequence Detection System (Applied Biosystems, Foster City, Calif.) allowed for real time detection/quantitation of a specific gene by monitoring the increase in fluorescence of a gene-specific, dye-labeled oligonucleotide probe. Probes for target and reference genes were labeled at the 5′-end with a 6-carboxyfluorescein (6FAM) reporter dye and at the 3′-end with a 6-carboxy-N,N,N′,N′-tetramethylrhodamine (TAMRA) quencher dye. When the probe was annealed to the target gene, fluorescence of 6FAM was prevented by the close proximity of TAMRA. The exonuclease activity of Taq polymerase released the dyes from the oligonucleotide probe by displacing the probe from the target sequence resulting in fluorescence excitation in direct proportion to the amount of target message present. Data analysis was performed using the Sequence Detection System software from Applied Biosystems.
All primers and probes were designed using Primer Express software supplied with the 7700 Sequence Detection System and synthesized by Applied Biosystems. Standard curves using 5-fold dilutions of total RNA (from 200 ng to 320 pg) were performed to determine the efficiency of each primer/probe set in the TaqMan reaction prior to the analysis of the experimental samples. Primer/probe sets were designed from known sequences of rat genes to be analyzed. All target gene values were normalized to a reference gene, constitutively expressed cyclophilin. Primer/probe set sequences can be found in Table 8.
RNA was extracted from frozen (−80° C.) rat heart tissue using the Totally RNA Isolation Kit (Ambion, Inc., Austin, Tex.). Tissue was crushed using a stainless steel mortar and pestle, which had been chilled to −80° C. and transferred to a dounce homogenizer (Kontes, Vineland, N.J.) containing 3-10 mL cold denaturation buffer. Tissue was homogenized and transferred to a sterile, 15 mL polypropylene centrifuge tube. An equal volume of phenol:chloroform:isoamyl alcohol (25:24:1) was added, samples were shaken vigorously for 1 min, and incubated on ice for at least 15 min. Samples were centrifuged for 30 min at 10,000g. The aqueous phase was removed, 1/10 volume of a sodium acetate solution (3.0 M NaOAc pH 4.5) was added, samples were shaken or inverted for 10 seconds, and acid-phenol (premixed with isoamyl alcohol):chloroform (5:1, Ambion, Inc.) was added at an volume equivalent to the starting sample volume. Samples were shaken vigorously for 1 min, followed by a 15-min incubation on ice, and centrifuged for 30 min at 10,000 g. The aqueous phase removed and placed in a clean polypropylene tube. An equal volume of isopropanol (Sigma, St. Louis, Mo.) was added and the samples were mixed and incubated overnight at −20° C. The samples were centrifuged for 30 min at 10,000 g, the supernatant was removed and the RNA pellet was resuspended in DNAse/RNAse-free water. Samples were frozen at −80° C. for at least 2 hours, thawed on wet ice, and diluted for quantitation.

| SMILES | Osteop-pontin mRNA (AU) (after 7 days of treatment) | Osteopontin expression upregulation (after 14 days of aldosterone + salt treatment) | Osteop-pontin mRNA (AU) (after 14 days of treatment) | Osteopontin expression upregulation (after 30 days of aldosterone + salt treatment) | Osteop-pontin mRNA (AU) (after 30 days of treatment) | Osteopontin (AU) (data used for Table 17 (7-day protocol), listed as Aldosterone + salt) | Osteopontin (AU) (data used for Table 18 (14-day protocol), listed as Aldosterone + salt) | Osteopontin (AU) (data used for Table 19 (30-day protocol), listed as Aldosterone + salt) | Osteopontin (AU) (data used for Table 17 (7-day protocol), listed as Eplerenone + aldosterone + salt) | Osteopontin (AU) (data used for Table 18 (14-day protocol), listed as Eplerenone + aldosterone + salt) | Osteopontin (AU) (data used for Table 19 (30-day protocol), listed as Eplerenone + aldosterone + salt) | Osteopontin mRNA expression (myocardium, aldosterone + salt, 7, 14, 30 days, eplerenone 100 mg/kg/day) |
| --- | --- | --- | --- | --- | --- | --- | --- | --- | --- | --- | --- | --- |
| C[C@]12CCC(=O)C=C1CC[C@@H]1[C@@H]2[C@@H](O)C[C@]2(C=O)[C@@H](C(=O)CO)CC[C@@H]12 [Aldosterone] | 1.91 AU | ~6 fold | 6.56 AU | ~13 fold | 13.27 AU | 1.84 AU and 0.84 AU and 0.95 AU and 1.05 AU and 1.08 AU and 4.92 AU and 3.29 AU and 1.32 AU and 28.64 AU | 8.14 AU and 1.02 AU and 6.19 AU and 4.06 AU and 12.04 AU and 2.35 AU and 8.25 AU and 10.41 AU and 81.29 AU | 13.13 AU and 11.43 AU and 13.78 AU and 7.97 AU and 18.44 AU and 14.88 AU |  |  |  |  |
| COC(=O)[C@@H]1CC2=CC(=O)CC[C@]2(C)[C@@]23O[C@@H]2C[C@@]2(C)[C@@H](CC[C@@]24CCC(=O)O4)[C@H]13 [Eplerenone] | 0.75 AU |  | 2.94 AU |  | 2.59 AU |  |  |  | 0.54 AU and 1.24 AU and 0.52 AU and 0.27 AU and 0.60 AU and 1.13 AU and 0.96 AU and 0.75 AU | 4.03 AU and 1.00 AU and 0.77 AU and 8.43 AU and 1.59 AU and 3.97 AU and 3.93 AU and 2.13 AU and 0.72 AU and 4.76 AU and 0.99 AU | 1.53 AU and 3.28 AU and 1.98 AU and 8.91 AU and 1.88 AU and 1.97 AU and 1.28 AU and 1.43 AU and 1.01 AU and 54.57 AU | inhibition; also recorded: significantly reduced |
